Experimental data published in EP0226508A1, “Indolo[3,2-c]quinoline derivatives, process for their preparation and their anti-tumour activity” (priority 1985, dated 1987).

What was measured:
leucémie P 388 = experiment: animal or person; assay type: in vivo, souris hybrides CDF 1; conditions: for Nombre de survivants: survivors at J 40; for Variation pondérale en g: in vivo, ip
Text: (§1) L'activité antitumorale a été testée in vivo sur différentes tumeurs selon le protocole général suivant:
(§2) Toutes les souris mâles ou femelles sont inoculées par voie intrapéritonéale au jour Jo avec une quantité déterminée de cellules tumorales viables, variable selon la tumeur.
(§3) Elles sont ensuite réparties en différents lots. Chaque lot correspondant aux animaux traités par le produit à tester à une dose déterminée est composé de 10 souris. Dans ce cas, le produit à tester est dissous dans l'eau distillée et il est administré, pendant n jours (J₁-Jn) variables selon le protocole choisi, par voie intrapéritonéale à raison de 0,1 ml par 10 g de poids des souris traitées, les doses du produit administré étant précisées dans les tableaux ci-dessous.
(§4) Le lot "contrôle négatif", correspondant aux animaux qui ne sont pas traités par un produit, comprend 2 √N animaux, N étant égal au nombre total de souris traitées par un produit.
(§5) Enfin, tous les essais sont conduits parallèlement à l'étude d'un lot appelé "contrôle positif" de 10 animaux qui est traité par une molécule active, variable selon le protocole choisi, dans les mêmes conditions que les lots traités par le produit à tester, afin de valider l'essai.
(§6) L'activité antitumorale est évaluée en considé-rant l'augmentation du temps de survie des animaux traités par rapport à celui des animaux du lot "contrôle négatif" selon la formule : [formula]
(§7) Un composé est considéré comme étant actif lorsque la valeur du rapport T/C est égale ou supérieure à 125 % selon le protocole retenu. Il est toxique lorsque cette valeur est égale ou inférieure à 85 %. Le produit est également considéré comme toxique lorsque la variation pondérale, exprimée en grammes et calculée par la formule : Poids moyen du lot mesuré au jour 5 -poids moyen du même lot au jour 1 est égale ou inférieure à - 4 g.
a) Test de la leucémie P 388 (GERAN et al., Cancer Chemother, 1972, 2, 07-57).
Les essais sont effectués avec des souris hybrides CDF 1 inoculées par voie intrapéritonéale avec 10⁶ cellules leucémiques de la lignée P 388. Le composé à tester est administré pendant 5 jours (J1-J5). Le contrôle positif du test est le 5-fluorouracile qui est administré dans les mêmes conditions. Le nombre d'animaux survivants est évalué au jour J 40. Un composé est considéré comme étant actif lorsque le rapport T/C est supérieur à 127 %.

[1] = test system: souris consanguines DBA₂ saines; experiment: Acute toxicity, single intraperitoneal injection in healthy mice, mortality at day 7; assay type: in vivo; conditions: single i.p. injection, 50 mg/kg
leucémie L 1210 = experiment: In vivo antitumour activity, L 1210 leukemia test; design: species or system souris hybrides CDF₁; conditions: for Nombre de survivants: survivors at J 30
Text: as §1, §2, §3, §4, §5, §6, §7
b) Test de la leucémie L 1210 (GERAN et al., Cancer Chemother, 1972, 2, 07-57).
Les essais sont effectués avec des souris hybrides CDF₁ inoculées avec 10⁵ cellules leucémiques de la lignée L 1210. Le composé à tester est administré pendant 5 jours (J₁-J₅).Le contrôle positif du test est le 5-fluorouracile administré dans les mêmes conditions. Le nombre d'animaux survivants est évalué au jour J 30. Un composé est considéré comme étant actif lorsque le rapport T/C est supérieur ou égal à 125 %.

mélanome B 16 = experiment: In vivo antitumour activity, B 16 melanoma test; design: species or system souris hybrides BDF₁; conditions: B 16 melanoma; for Nombre de survivants: survivors at J 60
Text: as §1, §2, §3, §4, §5, §6
Le produit est également considéré comme toxique lorsque la variation pondérale, exprimée en grammes et calculée par la formule : Poids moyen du lot mesuré au jour 5 -poids moyen du même lot au jour 1 est égale ou inférieure à - 4 g.
Les essais sont effectués avec des souris hybrides BDF₁ inoculées avec 0,5 ml d'un homogénat de mélanome B 16 réalisé à partir de 1 g de tumeur dans 10 ml de sérum physiologique. Le composé à tester est administré pendant 9 jours (J₁-J₉).Le contrôle positif du test est le Cis-Platine administré dans les mêmes conditions. Le nombre d'animaux survivants est évalué au jour J 60.

[2] = test system: lignée tumorale leucémie L 1210; experiment: In vitro cytotoxic activity on L 1210 leukemia cell culture (inhibition of cell proliferation); assay type: cell-based; conditions: Mus musculus, L1210; L 1210 culture in exponential growth, 37°C, after 48 hours of contact; read-out: ID 50 (the source's name)
Procedure: 1) In vitro : (PAOLETTI et al., Chem. Biol. Interaction, 1979, 25, 45-58).
L'activité cytotoxique des composés de l'invention a été évaluée par des essais in vitro. Ces essais consistent à ajouter des concentrations croissantes du composé à tester à une culture cellulaire de la lignée tumorale leucémie L 1210 en phase exponentielle de croissance. Les cellules sont incubées à 37°C dans une étuve à CO₂ et comptées toutes les 24 heures. Le calcul de l'ID₅₀ (concentration du produit exprimée en micromole 1⁻¹ qui inhibe la prolifération cellulaire à 50 p. 100) est effectuée après 48 heures de contact. Ainsi déterminées les ID₅₀ des composés de l'invention sont rassemblées dans le tableau ci-après.

[3] = Mus musculus, P388, ip, P 388, CDF 1 mice, 5 mg/kg i.p. J1-J5, read-out: T/C %
[4] = L 1210, CDF₁ mice, 5 mg/kg i.p. J1-J5
[5] = L 1210, CDF₁ mice, 10 mg/kg i.p. J1-J5
[6] = BDF₁ mice, 2,5 mg/kg i.p. J1-J9
[7] = L 1210, CDF₁ mice, 20 mg/kg i.p. J1-J5
[8] = L 1210, CDF₁ mice, 30 mg/kg i.p. J1-J5
[9] = L 1210, CDF₁ mice, 1,25 mg/kg i.p. J1-J5
[10] = L 1210, CDF₁ mice, 2,5 mg/kg i.p. J1-J5
[11] = L 1210, CDF₁ mice, 7,5 mg/kg i.p. J1-J5
[12] = BDF₁ mice, 0,625 mg/kg i.p. J1-J9
[13] = BDF₁ mice, 1,25 mg/kg i.p. J1-J9

Compound: CCN(CC)CCCNc1nc2ccccc2c2c1c1cc(O)ccc1n2C [Dérivé N°3]
- response vs control in vivo at 5 mg/kg (leucémie P 388; [3]): 155%
- response vs control in vivo at 10 mg/kg (leucémie P 388; Mus musculus, P388, ip, P 388, CDF 1 mice, 10 mg/kg i.p. J1-J5, read-out: T/C %): 147%
- response vs control in vivo at 20 mg/kg (leucémie P 388; Mus musculus, P388, ip, P 388, CDF 1 mice, 20 mg/kg i.p. J1-J5, read-out: T/C %): 149%
- Nombre de survivants (leucémie P 388; P 388, CDF 1 mice, 5 mg/kg i.p. J1-J5): 0
- Nombre de survivants (leucémie P 388; P 388, CDF 1 mice, 10 mg/kg i.p. J1-J5): 0
- Nombre de survivants (leucémie P 388; P 388, CDF 1 mice, 20 mg/kg i.p. J1-J5): 0
- Variation pondérale en g (leucémie P 388; 5 mg/kg): + 1,0 g
- Variation pondérale en g (leucémie P 388; 10 mg/kg): - 0,6 g
- Variation pondérale en g (leucémie P 388; 20 mg/kg): - 2,2 g
- mortalité évaluée au septième jour après l'administration [1]: aucune mortalité
- Jour médian de survie (leucémie L 1210; [4]): 10,6
- T/C % (leucémie L 1210; [4]): 129%
- Nombre de survivants (leucémie L 1210; [4]): 0
- Jour médian de survie (leucémie L 1210; [5]): 11,3
- T/C % (leucémie L 1210; [5]): 138%
- Nombre de survivants (leucémie L 1210; [5]): 0
- Jour médian de survie (mélanome B 16; [6]): 36
- T/C % (mélanome B 16; [6]): 138%
- Nombre de survivants (mélanome B 16; [6]): 0
- IC50 [2]: 60 nM

Compound: CCN(CC)CCCNc1nc2ccccc2c2[nH]c3ccc(O)cc3c12 [Dérivé N°11, (diéthylamino-3 propylamino)-6 hydroxy-8 11-H indolo[3,2-c]quinoléine]
- response vs control in vivo at 5 mg/kg (leucémie P 388; [3]): 154%
- response vs control in vivo at 1.25 mg/kg (leucémie P 388; Mus musculus, P388, ip, P 388, CDF 1 mice, 1,25 mg/kg i.p. J1-J5, read-out: T/C %): 142%
- response vs control in vivo at 2.5 mg/kg (leucémie P 388; Mus musculus, P388, ip, P 388, CDF 1 mice, 2,5 mg/kg i.p. J1-J5, read-out: T/C %): 152%
- response vs control in vivo at 15 mg/kg (leucémie P 388; Mus musculus, P388, ip, P 388, CDF 1 mice, 15,0 mg/kg i.p. J1-J5, read-out: T/C %): 146%
- Variation pondérale en g (leucémie P 388; 5 mg/kg): + 0,6 g
- mortalité évaluée au septième jour après l'administration [1]: aucune mortalité
- Jour médian de survie (leucémie L 1210; [4]): 14,25
- T/C % (leucémie L 1210; [4]): 160%
- Nombre de survivants (leucémie L 1210; [4]): 0
- Jour médian de survie (leucémie L 1210; [5]): 12,25
- T/C % (leucémie L 1210; [5]): 138%
- Nombre de survivants (leucémie L 1210; [5]): 0
- Jour médian de survie (leucémie L 1210; [7]): 11,7
- T/C % (leucémie L 1210; [7]): 131%
- Nombre de survivants (leucémie L 1210; [7]): 0
- Jour médian de survie (leucémie L 1210; [8]): 8,3
- T/C % (leucémie L 1210; [8]): 93%
- Nombre de survivants (leucémie L 1210; [8]): 0
- Jour médian de survie (leucémie L 1210; [9]): 10,9
- T/C % (leucémie L 1210; [9]): 122%
- Nombre de survivants (leucémie L 1210; [9]): 0
- Jour médian de survie (leucémie L 1210; [10]): 12,75
- T/C % (leucémie L 1210; [10]): 143%
- Nombre de survivants (leucémie L 1210; [10]): 0
- Jour médian de survie (leucémie L 1210; [11]): 12,3
- T/C % (leucémie L 1210; [11]): 138%
- Nombre de survivants (leucémie L 1210; [11]): 0
- Jour médian de survie (mélanome B 16; BDF₁ mice, 5 mg/kg i.p. J1-J9): 31
- T/C % (mélanome B 16; BDF₁ mice, 5 mg/kg i.p. J1-J9): 132%
- Nombre de survivants (mélanome B 16; BDF₁ mice, 5 mg/kg i.p. J1-J9): 0
- Jour médian de survie (mélanome B 16; [12]): 29
- T/C % (mélanome B 16; [12]): 123%
- Nombre de survivants (mélanome B 16; [12]): 0
- Jour médian de survie (mélanome B 16; [13]): 40
- T/C % (mélanome B 16; [13]): 170%
- Nombre de survivants (mélanome B 16; [13]): 1
- Jour médian de survie (mélanome B 16; [6]): 38
- T/C % (mélanome B 16; [6]): 162%
- Nombre de survivants (mélanome B 16; [6]): 2
- IC50 [2]: 130 nM
